In ChEMBL document CHEMBL3046124, “QSAR for Binding Affinity of Substituted Dibenzoylhydrazines to Intact Sf-9 Cells” (J Pestic Sci, 2005):

Target: T1, Ecdysone receptor (Spodoptera frugiperda, UniProt Q8MWR1+Q8MWR2)
T1 sequence (Q8MWR2 whole entry): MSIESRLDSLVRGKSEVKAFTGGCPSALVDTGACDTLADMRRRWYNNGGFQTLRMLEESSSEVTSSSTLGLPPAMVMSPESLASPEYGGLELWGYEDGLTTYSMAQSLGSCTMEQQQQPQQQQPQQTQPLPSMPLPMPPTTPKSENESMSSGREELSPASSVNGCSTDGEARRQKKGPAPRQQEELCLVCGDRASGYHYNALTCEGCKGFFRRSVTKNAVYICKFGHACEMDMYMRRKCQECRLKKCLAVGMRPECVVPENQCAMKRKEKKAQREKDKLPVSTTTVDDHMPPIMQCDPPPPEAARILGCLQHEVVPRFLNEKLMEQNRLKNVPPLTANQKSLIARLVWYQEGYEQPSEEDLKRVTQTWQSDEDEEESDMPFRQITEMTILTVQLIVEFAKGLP
T1 sequence (Q8MWR1 whole entry): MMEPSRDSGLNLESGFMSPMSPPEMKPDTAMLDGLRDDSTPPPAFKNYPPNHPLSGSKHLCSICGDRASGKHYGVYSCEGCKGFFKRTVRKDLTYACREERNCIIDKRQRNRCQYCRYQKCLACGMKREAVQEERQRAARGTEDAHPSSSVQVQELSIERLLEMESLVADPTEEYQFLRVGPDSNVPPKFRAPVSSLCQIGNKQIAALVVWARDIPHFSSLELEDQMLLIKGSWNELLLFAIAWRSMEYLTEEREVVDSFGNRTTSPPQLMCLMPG
Test: Displacement of [3H]PonA from ecdysone receptor in Spodoptera frugiperda (fall armyworm) Sf-9 cells after 30 min by liquid scintillation counting
Type: cell-based

Row | SMILES | IC50
1 | CC(C)(C)N(NC(=O)c1ccccc1)C(=O)c1ccccc1Cl | 83.2 nM
2 | CC(C)(C)N(NC(=O)c1ccc(Br)cc1)C(=O)c1ccccc1Cl | 20.4 nM
3 | CCCc1ccc(C(=O)NN(C(=O)c2ccccc2Cl)C(C)(C)C)cc1 | 22.9 nM
4 | CC(C)c1ccc(C(=O)NN(C(=O)c2ccccc2Cl)C(C)(C)C)cc1 | 15.1 nM
5 | COc1ccc(C(=O)NN(C(=O)c2ccccc2Cl)C(C)(C)C)cc1 | 61.7 nM
6 | CC(C)(C)N(NC(=O)c1ccc(-c2ccccc2)cc1)C(=O)c1ccccc1Cl | 6760 nM
7 | CC(=O)c1ccc(C(=O)NN(C(=O)c2ccccc2Cl)C(C)(C)C)cc1 | 427 nM
8 | CC(C)(C)N(NC(=O)c1ccc(C#N)cc1)C(=O)c1ccccc1Cl | 1820 nM
9 | Cc1ccc(C(=O)NN(C(=O)c2ccccc2Cl)C(C)(C)C)cc1 | 52.5 nM
10 | CCc1ccc(C(=O)NN(C(=O)c2ccccc2Cl)C(C)(C)C)cc1 | 12.9 nM
11 | CC(C)(C)N(NC(=O)c1ccc(F)cc1)C(=O)c1ccccc1Cl | 51.3 nM
12 | CC(C)(C)N(NC(=O)c1ccc(Cl)cc1)C(=O)c1ccccc1Cl | 129 nM
13 | CC(C)(C)N(NC(=O)c1ccc(I)cc1)C(=O)c1ccccc1Cl | 50.1 nM
14 | CCCCc1ccc(C(=O)NN(C(=O)c2ccccc2Cl)C(C)(C)C)cc1 | 5.37 nM
15 | CC(C)(C)c1ccc(C(=O)NN(C(=O)c2ccccc2Cl)C(C)(C)C)cc1 | 21.9 nM
16 | CC(C)(C)N(NC(=O)c1ccc(S(C)(=O)=O)cc1)C(=O)c1ccccc1Cl | 2880 nM
17 | CC(C)(C)N(NC(=O)c1ccc(C(F)(F)F)cc1)C(=O)c1ccccc1Cl | 110 nM
18 | CC(C)(C)N(NC(=O)c1ccc([N+](=O)[O-])cc1)C(=O)c1ccccc1Cl | 380 nM
